Experimental data as given in article PMC3575809 (Nucleic Acids Research, 2012).

Experiments:
Mtb DnaG [1] = target: T1, Mtb DnaG (Mycobacterium tuberculosis, UniProt P9WNW1); format: biochemical; conditions: for signal change in HTS: 13 µM compound, not enzyme activation but phosphate from the compound
T1 sequence (P9WNW1 1-639): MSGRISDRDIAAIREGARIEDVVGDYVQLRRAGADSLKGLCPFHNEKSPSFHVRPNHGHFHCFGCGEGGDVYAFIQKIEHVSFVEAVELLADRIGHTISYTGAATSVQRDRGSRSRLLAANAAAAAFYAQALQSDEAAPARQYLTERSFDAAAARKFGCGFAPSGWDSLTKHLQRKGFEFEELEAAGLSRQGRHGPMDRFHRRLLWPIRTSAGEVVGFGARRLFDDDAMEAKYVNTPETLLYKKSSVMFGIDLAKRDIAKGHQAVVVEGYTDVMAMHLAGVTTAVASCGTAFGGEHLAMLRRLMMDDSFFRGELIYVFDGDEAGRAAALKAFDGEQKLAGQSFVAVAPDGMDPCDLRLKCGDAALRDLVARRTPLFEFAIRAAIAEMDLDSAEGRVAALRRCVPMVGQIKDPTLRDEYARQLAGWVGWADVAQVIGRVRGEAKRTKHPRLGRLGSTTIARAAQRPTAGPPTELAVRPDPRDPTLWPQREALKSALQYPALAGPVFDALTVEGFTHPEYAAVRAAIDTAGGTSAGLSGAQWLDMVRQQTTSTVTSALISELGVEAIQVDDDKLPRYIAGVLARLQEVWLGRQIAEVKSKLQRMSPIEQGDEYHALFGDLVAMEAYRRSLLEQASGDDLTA

Mtb DnaG [2] = target: T1, Mtb DnaG; test: Mode of inhibition assays; format: biochemical; conditions: for mode of inhibition: Lineweaver–Burk plots, varied NTP and DNA; for n, number of inhibitor molecules bound: alternative model with high cooperativity; for n, number of binding sites on Mtb DnaG: global fit, non-cooperative model
Mtb DnaG [3] = target: T1, Mtb DnaG; format: biochemical; conditions: 10 µM inhibitor (Figure 3); gel, Figures 3 and 9
human DNA polymerase α = conditions: cited from earlier work
human primase = conditions: cited from earlier work
Mtb DnaG [4] = target: T1, Mtb DnaG; test: Dose–response coupled primase–pyrophosphatase assay; conditions: for Hill coefficient: dose–response fit, 1.25 µM DNA, 110 µM NTP, 0.5 µM Mtb DnaG
Mtb DnaG (DNA primase) = target: T2, Mtb DnaG (DNA primase) (Mycobacterium tuberculosis H37Rv, UniProt P9WNW1 1-639); test: fluorescence anisotropy
T2 sequence: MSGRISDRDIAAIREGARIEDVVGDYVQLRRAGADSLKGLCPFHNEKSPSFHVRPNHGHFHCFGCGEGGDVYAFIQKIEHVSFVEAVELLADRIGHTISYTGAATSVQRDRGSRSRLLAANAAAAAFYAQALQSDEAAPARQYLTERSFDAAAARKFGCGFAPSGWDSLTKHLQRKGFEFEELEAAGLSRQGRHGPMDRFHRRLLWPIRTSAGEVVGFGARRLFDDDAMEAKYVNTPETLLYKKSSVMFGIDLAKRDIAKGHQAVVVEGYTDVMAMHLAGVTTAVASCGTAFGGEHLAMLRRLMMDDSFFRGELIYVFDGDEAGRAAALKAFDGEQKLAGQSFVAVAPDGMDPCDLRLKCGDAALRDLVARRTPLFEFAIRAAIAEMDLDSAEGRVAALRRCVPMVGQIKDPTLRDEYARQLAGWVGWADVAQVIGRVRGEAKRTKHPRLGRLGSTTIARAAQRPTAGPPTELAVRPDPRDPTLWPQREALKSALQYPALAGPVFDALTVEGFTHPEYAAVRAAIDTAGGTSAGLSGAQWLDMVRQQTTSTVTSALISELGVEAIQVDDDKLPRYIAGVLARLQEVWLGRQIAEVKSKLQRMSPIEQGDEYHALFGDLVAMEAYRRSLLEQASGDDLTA

CC(C)N(CCC(C(N)=O)(c1ccccc1)c1ccccn1)C(C)C (stereo not shown) [disopyramide phosphate]
signal change in HTS (Mtb DnaG [1]): increase in absorbance

Cc1ccc(C(=O)Nc2ccc(S(=O)(=O)O)c3cc(S(=O)(=O)O)cc(S(=O)(=O)O)c23)cc1NC(=O)c1cccc(NC(=O)Nc2cccc(C(=O)Nc3cc(C(=O)Nc4ccc(S(=O)(=O)O)c5cc(S(=O)(=O)O)cc(S(=O)(=O)O)c45)ccc3C)c2)c1 [suramin]
Ki (Mtb DnaG [2]): 3200 ± 500 nM | mode of inhibition (Mtb DnaG [2]): competitive inhibitors with respect to both NTP and DNA | n, number of inhibitor molecules bound (Mtb DnaG [2]): 3 | n, number of binding sites on Mtb DnaG (Mtb DnaG [2]): 4 | effect on synthesis of radioactively labelled RNA products (Mtb DnaG [3]): potent Mtb DnaG inhibitors | mode of inhibition (human DNA polymerase α): DNA- and NTP-competitive inhibitor of human DNA polymerase α and primase, respectively | mode of inhibition (human primase): DNA- and NTP-competitive inhibitor of human DNA polymerase α and primase, respectively | IC50 (Mtb DnaG [4]): 6.3 ± 0.2 µM | Hill coefficient (Mtb DnaG [4]): 2.9 ± 0.1

O=C(O)c1ccccc1OP(=O)(O)O [fosfosal]
signal change in HTS (Mtb DnaG [1]): increase in absorbance

O=C(O)CN(CCN(CC(=O)O)CC(=O)O)CC(=O)O [EDTA, ethylenediaminetetraacetic acid]
inhibition by positive control in HTS (Mtb DnaG [1]): full inhibition

COc1cccc2c1C(=O)c1c(O)c3c(c(O)c1C2=O)C[C@@](O)(C(=O)CO)C[C@@H]3O[C@H]1C[C@H](N)[C@H](O)[C@H](C)O1 [doxorubicin]
Ki (Mtb DnaG [2]): 2500 ± 500 nM | mode of inhibition (Mtb DnaG [2]): competitive inhibitors with respect to both NTP and DNA | n, number of inhibitor molecules bound (Mtb DnaG [2]): 2 | n, number of binding sites on Mtb DnaG (Mtb DnaG [2]): 3 | effect on synthesis of radioactively labelled RNA products (Mtb DnaG [3]): potent Mtb DnaG inhibitors | IC50 (Mtb DnaG [4]): 7.7 ± 0.5 µM | Hill coefficient (Mtb DnaG [4]): 2.0 ± 0.2

O=c1oc2c(O)c(O)cc3c(=O)oc4c(O)c(O)cc1c4c23 [ellagic acid]
IC50 (Mtb DnaG [4]): 22 ± 3 µM

CO[C@H]1C[C@H](O[C@H]2[C@H](C)[C@@H](O[C@@H]3O[C@H](C)C[C@H](N(C)C)[C@H]3O)[C@@H](C)C[C@@]3(CO3)C(=O)[C@H](C)[C@@H](O)[C@@H](C)[C@@H](C)OC(=O)[C@@H]2C)O[C@@H](C)[C@@H]1O [oleandomycin phosphate]
signal change in HTS (Mtb DnaG [1]): increase in absorbance

B1: 28-mer ssDNA (ssDNA)
DNA: CCGAATCAGTCCGACGACGCATCAGCAC
Kd (Mtb DnaG (DNA primase)): 36 ± 16 nM
